According to PubChem BioAssay AID328 (DTP/NCI, 2004):
Where “and” joins values, the source holds several entries; their conditions need not be identical. Equal values may be shown once. Inconclusive results and toxic doses are left out. Rule for the calls: active = survival T/C of 150% or more; inactive = T/C below 125% in these data.

Tested on: BDF1 mice, P388 leukemia ip, median survival T/C
Assay: NCI In Vivo Anticancer Drug Screen. Data for tumor model P388 Leukemia (intraperitoneal) in B6D2F1 (BDF1) mice
Conditions: endpoint: median survival time, higher = longer survival
Outline: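 Antitumour effect was judged in vivo: survival in drug-treated mice, normalised to that of vehicle-dosed controls, gives the reported T/C.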

[1] = dose: 50.0 mg/kg/injection, schedule: Q01DX009 (ip), vehicle: Klucel (hydroxypropylcellulose) (HPC)
[2] = dose: 100.0 mg/kg/injection, schedule: Q01DX009 (ip), vehicle: Klucel (hydroxypropylcellulose) (HPC)
[3] = dose: 100.0 mg/kg/injection, schedule: Q04DX003 (ip), vehicle: Klucel (hydroxypropylcellulose) (HPC)
[4] = dose: 200.0 mg/kg/injection, schedule: Q01DX009 (ip), vehicle: Klucel (hydroxypropylcellulose) (HPC)
[5] = dose: 200.0 mg/kg/injection, schedule: Q04DX003 (ip), vehicle: Klucel (hydroxypropylcellulose) (HPC)
[6] = dose: 400.0 mg/kg/injection, schedule: Q04DX003 (ip), vehicle: Klucel (hydroxypropylcellulose) (HPC)
[7] = dose: 100.0 mg/kg/injection, schedule: Q04DX003 (ip), vehicle: saline with Tween-80
[8] = dose: 200.0 mg/kg/injection, schedule: Q04DX003 (ip), vehicle: saline with Tween-80
[9] = dose: 400.0 mg/kg/injection, schedule: Q04DX003 (ip), vehicle: saline with Tween-80
[10] = dose: 66.0 mg/kg/injection, schedule: Q04DX003 (ip), vehicle: saline with Tween-80
[11] = dose: 25.0 mg/kg/injection, schedule: Q01DX009 (ip), vehicle: saline with Tween-80
[12] = dose: 50.0 mg/kg/injection, schedule: Q01DX009 (ip), vehicle: saline with Tween-80
[13] = dose: 100.0 mg/kg/injection, schedule: Q01DX009 (ip), vehicle: saline with Tween-80
[14] = dose: 200.0 mg/kg/injection, schedule: Q01DX009 (ip), vehicle: saline with Tween-80

Measured: T/C

CCC1COC(=O)N1 (stereo unspecified)
inactive: dose: 25.0 mg/kg/injection, schedule: Q04DX003 (ip), vehicle: saline 109 % of control | dose: 50.0 mg/kg/injection, schedule: Q04DX003 (ip), vehicle: saline 104 % of control | dose: 100.0 mg/kg/injection, schedule: Q04DX003 (ip), vehicle: saline 95 % of control

NC(Cn1cc(N(CCCl)CCCl)c(=O)[nH]c1=O)C(=O)O (stereo unspecified)
active: dose: 6.0 mg/kg/injection, schedule: Q01DX009 (ip), vehicle: saline 175 % of control | dose: 12.0 mg/kg/injection, schedule: Q01DX009 (ip), vehicle: saline 189 % of control | dose: 24.0 mg/kg/injection, schedule: Q01DX009 (ip), vehicle: saline 215 % of control

O=C(NNc1ccccc1)C(F)(F)F
inactive: dose: 12.5 mg/kg/injection, schedule: Q01DX009 (ip), vehicle: Klucel (hydroxypropylcellulose) (HPC) 90 % of control | dose: 25.0 mg/kg/injection, schedule: Q01DX009 (ip), vehicle: Klucel (hydroxypropylcellulose) (HPC) 95 % of control | dose: 37.5 mg/kg/injection, schedule: Q04DX003 (ip), vehicle: saline with Tween-80 100 % of control | [1] 110 % of control | dose: 56.25 mg/kg/injection, schedule: Q01DX001 (ip), vehicle: saline with Tween-80 104 % of control | dose: 75.0 mg/kg/injection, schedule: Q04DX003 (ip), vehicle: saline with Tween-80 104 % of control | dose: 112.5 mg/kg/injection, schedule: Q01DX001 (ip), vehicle: saline with Tween-80 100 % of control

Cc1cc(=O)oc2cc3oc(N(C)c4ccccc4)nc(=O)c3cc12
inactive: dose: 100.0 mg/kg/injection, schedule: Q04DX002 (ip), vehicle: saline with Tween-80 100 % of control | dose: 200.0 mg/kg/injection, schedule: Q04DX002 (ip), vehicle: saline with Tween-80 92 % of control | dose: 400.0 mg/kg/injection, schedule: Q04DX002 (ip), vehicle: saline with Tween-80 102 % of control

O=C(NO)c1ccccc1
inactive: [1] 105 % of control and 116 % of control | dose: 50.0 mg/kg/injection, schedule: Q04DX003 (ip), vehicle: Klucel (hydroxypropylcellulose) (HPC) 103 % of control and 116 % of control | [2] 91 % of control and 104 % of control and 105 % of control | [3] 106 % of control and 108 % of control and 113 % of control | [4] 107 % of control and 109 % of control | [5] 104 % of control (2×) and 108 % of control | [6] 100 % of control and 116 % of control

CCCC(=O)Oc1ccc2c(C)cc(=O)oc2c1
inactive: [7] 104 % of control | [8] 90 % of control | [9] 100 % of control

CCOC(=O)C(NC(=O)C(Cc1ccc(N(CCCl)CCCl)cc1)NC(C)=O)C(C)C (stereo unspecified)
active: dose: 40.0 mg/kg/injection, schedule: Q04DX003 (ip), vehicle: other 151 % of control | [10] 168 % of control | [7] 186 % of control | dose: 150.0 mg/kg/injection, schedule: Q04DX003 (ip), vehicle: saline with Tween-80 245 % of control
inactive: dose: 5.0 mg/kg/injection, schedule: Q04DX003 (ip), vehicle: other 118 % of control | dose: 10.0 mg/kg/injection, schedule: Q04DX003 (ip), vehicle: other 118 % of control

CC(/C=N\N=C(N)N)=N/N=C(N)N
active: dose: 44.0 mg/kg/injection, schedule: Q01DX009 (ip), vehicle: saline 150 % of control
inactive: dose: 5.0 mg/kg/injection, schedule: Q01DX010 (ip), vehicle: saline 90 % of control | dose: 10.0 mg/kg/injection, schedule: Q01DX010 (ip), vehicle: saline 90 % of control and 100 % of control | dose: 20.0 mg/kg/injection, schedule: Q01DX010 (ip), vehicle: saline 100 % of control | dose: 400.0 mg/kg/injection, schedule: Q04DX003 (ip), vehicle: saline 95 % of control

CCCCC(CC)C(=O)[O][Sn]([CH2]CCC)([CH2]CCC)[O]C(=O)C(CC)CCCC (stereo unspecified)
inactive: dose: 6.25 mg/kg/injection, schedule: Q04DX003 (ip), vehicle: acetone 91 % of control | dose: 12.5 mg/kg/injection, schedule: Q04DX003 (ip), vehicle: acetone 95 % of control

O/N=C1\CCCc2ccc(F)cc21
inactive: [11] 100 % of control | [12] 106 % of control and 108 % of control | [13] 106 % of control | [14] 109 % of control and 120 % of control

O=C(Nc1ccc(Cl)cc1)O/N=C/c1ccccn1
inactive: dose: 100.0 mg/kg/injection, schedule: Q01DX001 (ip), vehicle: saline with Tween-80 95 % of control | dose: 200.0 mg/kg/injection, schedule: Q01DX001 (ip), vehicle: saline with Tween-80 104 % of control | dose: 400.0 mg/kg/injection, schedule: Q01DX001 (ip), vehicle: saline with Tween-80 90 % of control

O=[N+]([O-])c1ccc(N/N=C/C(Br)(Br)Br)c([N+](=O)[O-])c1
inactive: [12] 111 % of control | [13] 104 % of control | [14] 103 % of control

COC(=O)C12OCC34C(CC5C(C)=C(O)C(=O)CC5(C)C3C(O)C1O)OC(=O)C(O)C24 (stereo unspecified)
inactive: dose: 5.0 micrograms/kg/injection, schedule: Q01DX009 (ip), vehicle: saline 100 % of control | dose: 10.0 micrograms/kg/injection, schedule: Q01DX009 (ip), vehicle: saline 109 % of control | dose: 20.0 micrograms/kg/injection, schedule: Q01DX009 (ip), vehicle: saline 118 % of control

CCC(CC)OCCN1CCN(CCCN2c3ccccc3Sc3ccc(C(F)(F)F)cc32)CC1
inactive: dose: 5.0 mg/kg/injection, schedule: Q04DX003 (ip), vehicle: saline with Tween-80 103 % of control and 104 % of control | dose: 10.0 mg/kg/injection, schedule: Q04DX003 (ip), vehicle: saline with Tween-80 108 % of control and 116 % of control | dose: 20.0 mg/kg/injection, schedule: Q04DX003 (ip), vehicle: saline with Tween-80 122 % of control

Cc1nn(CCO)c(C)c1N=[N+]([O-])c1c(C)nn(CCO)c1C
inactive: dose: 15.0 mg/kg/injection, schedule: Q01DX009 (ip), vehicle: saline with Tween-80 114 % of control

O=C(CNC(=O)Nc1n[nH]c(=S)s1)N/N=C/c1ccccc1O
inactive: [12] 100 % of control | [13] 91 % of control | [14] 98 % of control

O=C(Cn1ccnc1[N+](=O)[O-])NCc1ccccc1
inactive: [12] 99 % of control | [13] 94 % of control | [14] 100 % of control

Cc1ccc(NC(=S)N2CCC(CCCC3CCN(C(=S)Nc4ccc(C)c(C)c4)CC3)CC2)cc1C
inactive: [2] 100 % of control | [3] 95 % of control | [4] 90 % of control | [5] 95 % of control | dose: 400.0 mg/kg/injection, schedule: Q01DX009 (ip), vehicle: Klucel (hydroxypropylcellulose) (HPC) 90 % of control | [6] 100 % of control

COc1cc2c(cc1OC)C1CCN3C(=O)CCC3N1CC2 (stereo unspecified)
inactive: [7] 88 % of control | [14] 92 % of control | [8] 92 % of control | dose: 400.0 mg/kg/injection, schedule: Q01DX009 (ip), vehicle: saline with Tween-80 104 % of control | [9] 96 % of control

O=C(O)C1=NNC(C(=O)O)=NN1
inactive: dose: 50.0 mg/kg/injection, schedule: Q01DX009 (ip), vehicle: saline 98 % of control | dose: 100.0 mg/kg/injection, schedule: Q01DX009 (ip), vehicle: saline 100 % of control | dose: 200.0 mg/kg/injection, schedule: Q01DX009 (ip), vehicle: saline 98 % of control

COc1ccc(C(=O)/C=C/c2ccccc2)c(O)c1CC=C(C)C
inactive: dose: 1.25 mg/kg/injection, schedule: Q01DX009 (ip), vehicle: Klucel (hydroxypropylcellulose) (HPC) 114 % of control | dose: 2.5 mg/kg/injection, schedule: Q01DX009 (ip), vehicle: Klucel (hydroxypropylcellulose) (HPC) 118 % of control | dose: 5.0 mg/kg/injection, schedule: Q01DX009 (ip), vehicle: Klucel (hydroxypropylcellulose) (HPC) 91 % of control | dose: 10.0 mg/kg/injection, schedule: Q01DX009 (ip), vehicle: Klucel (hydroxypropylcellulose) (HPC) 91 % of control | dose: 20.0 mg/kg/injection, schedule: Q01DX009 (ip), vehicle: Klucel (hydroxypropylcellulose) (HPC) 95 % of control | dose: 40.0 mg/kg/injection, schedule: Q01DX009 (ip), vehicle: Klucel (hydroxypropylcellulose) (HPC) 91 % of control

CCN(CCO)CCNc1ccc(C)c2sc3ccccc3c(=O)c12
inactive: [11] 122 % of control | [10] 103 % of control | [13] 104 % of control | [7] 117 % of control
